Type in all cases: in vivo
In one assay the test system is Setaria viridis (SETVI). Nature of the assay: greenhouse test, preemergence treatment, green foxtail. The note with it: 100 = no emergence or complete destruction, 0 = no damage. The text has this: (§1) It was possible to show the herbicidal action of the saccharin-5-carbonyl derivatives of the formula I by means of greenhouse tests: The cultivation containers used were plastic pots containing loamy sand with approximately 3.0% humus as a substrate. The seeds of the test plants were sown separately according to species. In the case of preemergence treatment, the active compounds suspended or emulsified in water were applied directly after sowing by means of finely dispersing nozzles. The containers were lightly watered in order to promote germination and growth, and then covered with transparent plastic hoods until the plants had taken root. This covering causes uniform germination of the test plants if this is not adversely affected by the active compounds. The application rate for preemergence treatment was 0.125 or 0.0625 kg/ha of a.s. The plants were kept species-specifically at temperatures of 10-25° C. or 20-35° C. The test period extended over 2 to 4 weeks. During this time, the plants were tended, and their reaction to the individual treatments was assessed. Assessment was carried out on a scale from 0 to 100. In this case, 100 means no emergence of the plants or complete destruction at least of the above-ground parts and 0 means no damage or a normal course of growth. The plants used in the greenhouse tests were made up of the following species: [table]

Assay [1] relates to Chenopodium album (CHEAL). The experiment in a line: greenhouse test, preemergence treatment, lambsquarter. The note with it: 100 = no emergence or complete destruction, 0 = no damage.
Description: as §1

The subject of assay [2] is digitaria sanguinalis (DIGSA). The experiment in a line: greenhouse test, preemergence treatment, large crabgrass. The note with it: 100 = no emergence or complete destruction, 0 = no damage.
Description: as §1

Assay [3] concerns Echinochloa crus galli (ECHCG). Nature of the assay: greenhouse test, preemergence treatment, common barnyard grass. The note with it: 100 = no emergence or complete destruction, 0 = no damage.
Description: as §1

The next assay deals with Glycine max (GLXMA). The experiment in a line: greenhouse test, preemergence treatment, soybean. The note with it: 100 = no emergence or complete destruction, 0 = no damage.
Description: as §1

For assay [4], the system named is weed grasses and broad-leaved plants. Nature of the assay: greenhouse test, preemergence treatment, overall statement. The note with it: 0.125 and 0.0625 kg/ha a.s.
Description: as §1, with “[table]” left out

Turning to `Cc1c(C(=O)C2=C(O)C3CCC(C3)C2=O)ccc2c1C(=O)N(C)S2(=O)=O` (centres unmarked) [Compound 1.1], the results for the “damage assessment on a scale from 0 to 100 (SETVI)” value in the assay on Setaria viridis (SETVI) (0.0625 kg/ha of a.s.) and in the assay on Setaria viridis (SETVI) (0.125 kg/ha of a.s.) were 98 and 100, respectively. Moreover, the “damage assessment on a scale from 0 to 100 (CHEAL)” value in assay [1] (0.0625 kg/ha of a.s.) and in assay [1] (0.125 kg/ha of a.s.) was 98 each time. Also, the “damage assessment on a scale from 0 to 100 (DIGSA)” value in assay [2] (0.0625 kg/ha of a.s.) and in assay [2] (0.125 kg/ha of a.s.) was 98 throughout. Also, the “damage assessment on a scale from 0 to 100 (ECHCG)” value in assay [3] (0.0625 kg/ha of a.s.) and in assay [3] (0.125 kg/ha of a.s.) was 98 each time. Further, the “damage assessment on a scale from 0 to 100 (GLXMA)” value in the assay on Glycine max (GLXMA) (0.0625 kg/ha of a.s.) and with Glycine max (GLXMA) (0.125 kg/ha of a.s.) was 0 in each case. For the same compound, in assay [4], the “control of weed grasses and broad-leaved plants” value was “very well controlled”.
